# Source: US20170119769A1, “SCAFFOLDS FOR INHIBITORS OF MENIN-MLL INTERACTIONS” (THE TRUSTEES OF THE UNIVERSITY OF PENNSYLVANIA, priority 2014, published 2017)
# “Also recorded” adds a separate entry of the source.
# Legend:
# [1] = tested on: murine islets; experiment: Proliferation (Ki67) in isolated murine islets; format: cell-based, C57BL/6J mice
# From the text: FIG. 14. Menin inhibitor (MI-2-2) increases proliferation in murine islets, as evidenced by increased number of cells positive for the proliferation marker Ki67. […] Isolated murine islets were pre-cultured for one day before treatment with drug or vehicle.
# The ability of MI-2-2 to stimulate cell growth was further tested in murine islets isolated from C57BL/6J mice (Jackson Laboratories, Bar Harbor, Me.).
# [2] = tested on: menin-expressing MEF cells; experiment: Cell growth of menin-expressing MEFs; format: cell-based, mouse; details: increasing concentrations from day 1; counted after six days of treatment
# Experimental: (§1) FIG. 15. Menin inhibition antagonizes menin mediated suppression of cell proliferation. […] Vector and menin-expressing MEFs (inset) were seeded at 0.25×10^6 cells/10 cm dish on day 0, treated with either DMSO or increasing concentrations of MI-2-2 from day 1 as indicated, and counted after six days of treatment.
# (§2) Vector and menin-expressing MEFs (FIG. 15, inset) were seeded at 0.25×10^6 cells/10 cm dish on day 0, treated with either DMSO or increasing concentrations of MI-2-2 from day 1 as indicated, and counted after six days of treatment. Thus, inhibition of menin antagonizes menin mediated suppression of cell proliferation.
# [3] = tested on: GLP1 receptor; experiment: GLP1 receptor expression in human islets (real time quantitative PCR); format: cell-based; details: 50 nM, 200 nM or 500 nM for 2 days, vs DMSO
# Experimental: FIG. 16. Menin inhibition increases expression of the GLP1 receptor Human islets were cultured in a humidified incubator with 5% CO2 at 37° C. After 24 hours, the islets were treated with vehicle control (DMSO) or varying concentrations of MI-2-2 (50 nM, 200 nM or 500 nM) for 2 days. The islets were harvested and. RNA was isolated and was reverse transcribed to cDNA. cDNA was quantitated by real time quantitative PCR and normalized using β-actin as endogenous control.
# Menin inhibition also increases expression of GLP1 receptor, which is the receptor mediating the pro-islet incretin's ability to reduce blood glucose (FIG. 16). Human islets were procured from the Islet Transplantation Center, University of Pennsylvania and cultured in a humidified incubator with 5% CO2 at 37° C. After 24 hours, the islets were treated with vehicle control (DMSO) or varying concentrations of MI-2-2 (50 nM, 200 nM or 500 nM) for 2 days. […] RNA was isolated using the RNeasy Mini Kit (Qiagen, Germantown, Md.) and was reverse transcribed to cDNA using the SuperScript® III Reverse Transcriptase (Life Technologies, Grand Island, N.Y.). cDNA was quantitated by real time quantitative PCR using QuantiTect SYBR® Green (Qiagen, Germantown, Md.) on a 7500 Fast Real time PCR system (AppliedBiosystems, Life Technologies, Grand Island, N.Y.) and normalized using β-actin as endogenous control.
# [4] = tested on: menin-null (vector) MEF cells; experiment: Cell growth of menin-null (vector) MEFs; format: cell-based, mouse; details: increasing concentrations from day 1; counted after six days of treatment
# Experimental: as §1, §2
structure (smiles),measurement,setting,value
CC1(C)CN=C(N2CCN(c3ncnc4sc(CC(F)(F)F)cc34)CC2)S1 [MI-2-2],Ki67 staining in murine islets,"[1]; 500 nM for two days, compared with vehicle control",increased Ki67 staining
same,Ki67 positive cells per unit area in murine islets,"[1]; treatment for 2 days, concentration dependence",increased the number of proliferating cells in a concentration dependent manner; also recorded: dose dependent increase
same,cell growth of menin-expressing MEFs,[2],increased cell growth in menin MEFs in a concentration dependent manner; also recorded: increases proliferation of menin-expressing MEF cells
same,expression of GLP1 receptor relative to β-actin expression,[3],about 2 fold
same,cell growth of menin-null (vector) MEFs,[4],did not do so in vector MEFs; also recorded: not menin-null (vector) cells
